{"source": "paper PMC9552147", "about": "(Nature Communications, 2022)", "key": {"M. tuberculosis H37Rv [1]": {"system": "M. tuberculosis H37Rv", "design": "species or system BALB/c mice", "details": "in vivo"}, "M. tuberculosis H37Rv [2]": {"system": "M. tuberculosis H37Rv"}, "M. tuberculosis H37Rv [3]": {"system": "M. tuberculosis H37Rv", "format": "cell-based, Mycobacterium tuberculosis", "design": "MIC, No Lysine / MIC, No Lysine, Ave: unit not given beside the values"}, "M. tuberculosis": {"system": "M. tuberculosis", "design": "species or system C57BL/6 mice", "details": "in vivo, 100 mg/kg"}, "M. tuberculosis H37Rv [4]": {"system": "M. tuberculosis H37Rv", "design": "species or system C57BL/6 mice", "details": "in vivo, 30 mg/kg"}, "[5]": {"system": "SDHA production (cytoplasmic ribosomes) in HepG2 cells", "method": "(§1) Cells were trypsinized in 0.05% trypsin-EDTA (Gibco) and re-suspended in 10 mL growth medium. Cells were filtered through a 40 µm filter and seeded in collagen-coated 96-well plates (Life technologies #A11428-03) at 3500 cells/well in a volume of 170 µL/well with plates agitated upon cell addition to ensure even distribution. […] The plates were incubated an additional 72 h after which the medium was gently aspirated and replaced with 4% paraformaldehyde (100 µL/well) prepared in Dulbecco’s PBS. After 20 min fixation, the medium was removed, and wells washed three times with 200 µL/well PBS. Wells were treated for 5 min with 0.5% acetic acid (100 μL/well), wells were washed with 200 μL/well PBS and subsequently treated with permeabilization buffer (0.1 % Triton X-100) (100 μL/well) for 30 min. Buffer was removed and replaced with 2× blocking buffer from the ab110217 MitoBiogenesis™ In-Cell ELISA Kit (Abcam). After 2 h incubation, primary antibody was added (100 μl/well) in 1× blocking buffer per manufacturer’s recommendation except for the background control wells which received 100 μl/well 1× blocking buffer only. […] Alkaline phosphatase/horse radish peroxidase-labeled secondary antibody solution prepared according to the manufacturer’s instructions in 1× blocking buffer was added at 100 μl/well to all wells. After 1 h incubation, wells were washed 4 times with wash buffer (200 μl/well) followed by addition of 100 μl/well freshly prepared per manufacturer’s recommendation alkaline peroxidase development solution. […] The reagent was removed, and 100 μl/well horse radish peroxidase development solution added. […] The development solution was completely removed, and plates blotted to dryness after which 1× Janus green stain (50 μl/well) was added. […] Data was interpreted per manufacturer’s instructions and plotted in GraphPad Prism to calculate IC20 and IC50 values for Cox-I/SDHA and cell viability."}, "HepG2 cells [6]": {"system": "HepG2 cells", "assay": "cells", "details": "Homo sapiens"}, "HepG2 cells [7]": {"system": "HepG2 cells", "assay": "cells", "format": "cell-based", "details": "Homo sapiens", "method": "as §1"}, "in vitro": {"assay": "in vitro", "details": "human, HepG2 IC50 (cytotoxicity)"}, "HepG2 cells [8]": {"system": "HepG2 cells"}, "[9]": {"system": "COX1 production (mitochondrial ribosomes) in HepG2 cells", "assay": "cells", "details": "Homo sapiens", "method": "as §1"}, "M. tuberculosis H37Rv [10]": {"system": "M. tuberculosis H37Rv", "assay": "microbe, parasite or virus in culture", "format": "cell-based, Mycobacterium tuberculosis", "details": "for MIC: Mycobacterium tuberculosis, H37RV"}, "[11]": {"system": "SDHA production (cytoplasmic ribosomes) in HepG2 cells", "assay": "cells", "details": "Homo sapiens", "method": "as §1"}, "[12]": {"system": "COX1 production (mitochondrial ribosomes) in HepG2 cells", "details": "for COX1 production: human; for IC50: read-out: Cox IC50", "method": "as §1"}, "[13]": {"system": "M. tuberculosis H37Rv:luc within THP1 monocytes", "assay": "microbe, parasite or virus in culture", "format": "cell-based", "details": "Mycobacterium tuberculosis"}, "[14]": {"system": "lysine biosynthetic pathway metabolites in M. tuberculosis", "format": "cell-based, Mycobacterium tuberculosis"}}, "note": "“And” between values parts separate entries of the source, which are not always exact repeats. Equal entries are not always repeated. Where two headings read alike, the source gives them in different places."}
{"compound": "O=[N+]([O-])c1cn2c(n1)OC[C@@H](OCc1ccc(OC(F)(F)F)cc1)C2", "note": "[Pa, pretomanid]", "values": [{"measurement": "logCFUs per mouse (lungs)", "setting": "M. tuberculosis H37Rv [1]", "result": "4.68 logCFUs per mouse and 4.53 logCFUs per mouse and 4.19 logCFUs per mouse and 4.48 logCFUs per mouse and 4.10 logCFUs per mouse"}, {"measurement": "logCFUs per mouse (lungs), Mean", "setting": "M. tuberculosis H37Rv [1]", "result": 4.4, "unit": "logCFUs per mouse"}, {"measurement": "change in lung CFU over the treatment period", "setting": "M. tuberculosis H37Rv [1]; mouse", "result": "significant decrease in CFU"}]}
{"compound": "CO[C@H]1/C=C/O[C@@]2(C)Oc3c(C)c(O)c4c(O)c(c(/C=N/N5CCN(C)CC5)c(O)c4c3C2=O)NC(=O)/C(C)=C\\C=C\\[C@H](C)[C@H](O)[C@@H](C)[C@@H](O)[C@@H](C)[C@H](OC(C)=O)[C@@H]1C", "note": "[Rifampicin, rifampicin]", "values": [{"measurement": "CFU/ml, Day 0", "setting": "M. tuberculosis H37Rv [2]", "result": 103000, "unit": "CFU/ml"}, {"measurement": "CFU/ml, Day 2", "setting": "M. tuberculosis H37Rv [2]", "result": "270000 CFU/ml and 190000 CFU/ml"}, {"measurement": "CFU/ml, Day 7", "setting": "M. tuberculosis H37Rv [2]", "result": "5000 CFU/ml and 5100 CFU/ml"}, {"measurement": "CFU/ml, Day 14", "setting": "M. tuberculosis H37Rv [2]", "result": "440 CFU/ml and 430 CFU/ml"}]}
{"compound": "COc1c(N2C[C@@H]3CCCN[C@@H]3C2)c(F)cc2c(=O)c(C(=O)O)cn(C3CC3)c12", "note": "[Moxifloxacin]", "values": [{"measurement": "MIC, +1mM Lysine", "setting": "M. tuberculosis H37Rv [3]", "result": "2.04 and 3.47"}, {"measurement": "MIC, +1mM Lysine, Ave", "setting": "M. tuberculosis H37Rv [3]", "result": 2.75}, {"measurement": "MIC, No Lysine", "setting": "M. tuberculosis H37Rv [3]", "result": "1.02 and 1.45"}, {"measurement": "MIC, No Lysine, Ave", "setting": "M. tuberculosis H37Rv [3]", "result": 1.23}, {"measurement": "logCFUs per mouse (lungs)", "setting": "M. tuberculosis", "result": "2.5 logCFUs per mouse (2×) and 2.3 logCFUs per mouse and 1.9 logCFUs per mouse and 2.2 logCFUs per mouse"}, {"measurement": "logCFUs per mouse (lungs), Mean", "setting": "M. tuberculosis", "result": 2.3, "unit": "logCFUs per mouse"}, {"measurement": "logCFUs per mouse (lungs)", "setting": "M. tuberculosis H37Rv [4]", "result": "3.2 logCFUs per mouse and 3.3 logCFUs per mouse (2×) and 2.4 logCFUs per mouse and 2.9 logCFUs per mouse and 3.5 logCFUs per mouse and 3.8 logCFUs per mouse (2×) and 2.6 logCFUs per mouse"}, {"measurement": "logCFUs per mouse (lungs), Mean", "setting": "M. tuberculosis H37Rv [4]", "result": "3 logCFUs per mouse and 3.4 logCFUs per mouse"}]}
{"compound": "Nc1cc2c(c(F)n1)C(=O)N(C1CCCCC1)C2", "note": "[Compound 2]", "values": [{"measurement": "SDHA production", "setting": "[5]; human", "result": "blocked expression of both COX1 and SDHA"}, {"measurement": "IC50", "setting": "[5]; read-out: SDH-A IC50", "result": "2.89 µM and 3.53 µM and 3.87 µM"}, {"measurement": "IC50", "setting": "HepG2 cells [6]; HepG2, read-out: IC50 (µM), Geo Mean", "result": 10.7, "unit": "µM"}, {"measurement": "IC50", "setting": "HepG2 cells [6]; HepG2, read-out: IC50 (µM), Mean", "result": 11.8, "unit": "µM"}, {"measurement": "IC50", "setting": "HepG2 cells [7]; HepG2, read-out: JG IC50, Ave", "result": 3.3, "unit": "µM"}, {"measurement": "IC50", "setting": "in vitro", "result": 11, "unit": "µM"}, {"measurement": "IC50", "setting": "HepG2 cells [8]", "result": 7.94, "unit": "µM"}, {"measurement": "IC50", "setting": "[9]; HepG2, read-out: Cox IC50", "result": 2.67, "unit": "µM"}, {"measurement": "IC50", "setting": "[9]; HepG2, read-out: Cox IC50, Ave", "result": 3.6, "unit": "µM"}, {"measurement": "WT MIC", "setting": "M. tuberculosis H37Rv [10]", "result": 0.74, "unit": "µM"}, {"measurement": "MIC", "setting": "M. tuberculosis H37Rv [10]; read-out: MIC (µM), single replicate", "result": 0.6, "unit": "µM"}, {"measurement": "MIC", "setting": "M. tuberculosis H37Rv [10]; read-out: MIC, Geo Mean", "result": 0.6, "unit": "µM"}, {"measurement": "MIC", "setting": "M. tuberculosis H37Rv [10]; read-out: MIC, Mean", "result": 0.6, "unit": "µM"}, {"measurement": "MIC", "setting": "M. tuberculosis H37Rv [10]; read-out: MIC, Median", "result": 0.6, "unit": "µM"}, {"measurement": "MIC", "setting": "M. tuberculosis H37Rv [10]; read-out: WT MIC", "result": 0.89, "unit": "µM"}, {"measurement": "MIC", "setting": "M. tuberculosis H37Rv [10]; read-out: WT MIC, Ave", "result": 0.82, "unit": "µM"}, {"measurement": "IC50", "setting": "[11]; HepG2, read-out: SDH-A IC50", "result": 3.04, "unit": "µM"}, {"measurement": "IC50", "setting": "[11]; HepG2, read-out: SDH-A IC50, Ave", "result": 3.3, "unit": "µM"}, {"measurement": "COX1 production", "setting": "[12]", "result": "blocked expression of both COX1 and SDHA"}, {"measurement": "IC50", "setting": "[12]", "result": "3.54 µM and 4.59 µM and 3.47 µM"}, {"measurement": "MIC", "setting": "[13]", "result": 0.71, "unit": "µM"}]}
{"compound": "NNC(=O)c1ccncc1", "note": "[isoniazid]", "values": [{"measurement": "MIC, +1mM Lysine", "setting": "M. tuberculosis H37Rv [3]", "result": "2.82 and 2.63"}, {"measurement": "MIC, +1mM Lysine, Ave", "setting": "M. tuberculosis H37Rv [3]", "result": 2.72}, {"measurement": "MIC, No Lysine", "setting": "M. tuberculosis H37Rv [3]", "result": "3.02 and 3.39"}, {"measurement": "MIC, No Lysine, Ave", "setting": "M. tuberculosis H37Rv [3]", "result": 3.20}]}
{"compound": "O=C(N[C@H](CO)[C@H](O)c1ccc([N+](=O)[O-])cc1)C(Cl)Cl", "note": "[chloramphenicol]", "values": [{"measurement": "IC50", "setting": "HepG2 cells [7]; HepG2, read-out: JG IC50", "result": "> 100", "unit": "µM"}, {"measurement": "IC50", "setting": "[9]; HepG2, read-out: Cox IC50", "result": 5.11, "unit": "µM"}, {"measurement": "IC50", "setting": "[9]; HepG2, read-out: Cox IC50, Ave", "result": 4.6, "unit": "µM"}, {"measurement": "IC50", "setting": "[11]; HepG2, read-out: SDH-A IC50", "result": "> 100", "unit": "µM"}, {"measurement": "COX1 production", "setting": "[12]", "result": "selective inhibition of COX1 production"}, {"measurement": "IC50", "setting": "[12]", "result": "4.44 µM and 3.97 µM and 4.95 µM"}]}
{"compound": "Nc1ncc2c(n1)CC(C1CCC1)C2=O", "note": "(centres unmarked) [Compound 9]", "values": [{"measurement": "Acetyl-amino-oxopimelate, Raw data", "setting": "[14]", "result": "6696.89 and 6125.64 and 5614.65"}, {"measurement": "Acetyl-aminoadipate, Raw data", "setting": "[14]", "result": "373220.66 and 356398.25 and 363487.19"}, {"measurement": "Acetyl-diaminopimelate, Raw data", "setting": "[14]", "result": "268291.72 and 294087.29 and 265596.05"}, {"measurement": "Allysine, Raw data", "setting": "[14]", "result": "6339.98 and 6256.07 and 3388.68"}, {"measurement": "Amino-oxoheptanedioate, Raw data", "setting": "[14]", "result": "67628.76 and 66386.61 and 73890.51"}, {"measurement": "Aminoadipate, Raw data", "setting": "[14]", "result": "230713.39 and 278620.19 and 273252.31"}, {"measurement": "Glutamic acid, Raw data", "setting": "[14]", "result": "95052793.71 and 89933952.73 and 93441271.33"}, {"measurement": "Lysine or Methylornithine, Raw data", "setting": "[14]", "result": "376867.18 and 321105.18 and 351101.87"}, {"measurement": "Saccharopine, Raw data", "setting": "[14]", "result": "4344892.84 and 4372904.79 and 3935929.36"}, {"measurement": "Succinyl-diaminopimelate, Raw data", "setting": "[14]", "result": "61950.05 and 84823.10 and 63130.16"}, {"measurement": "diaminopimelate, Raw data", "setting": "[14]", "result": "182757.00 and 205469.42 and 201059.38"}]}
{"compound": "CC(=O)NC[C@H]1CN(c2ccc(N3CCOCC3)c(F)c2)C(=O)O1", "note": "[Linezolid, linezolid]", "values": [{"measurement": "IC50", "setting": "HepG2 cells [7]; HepG2, read-out: JG IC50", "result": "> 100", "unit": "µM"}, {"measurement": "IC50", "setting": "[11]; HepG2, read-out: SDH-A IC50", "result": "> 100", "unit": "µM"}, {"measurement": "CFU/ml, Day 0", "setting": "M. tuberculosis H37Rv [2]", "result": 103000, "unit": "CFU/ml"}, {"measurement": "CFU/ml, Day 2", "setting": "M. tuberculosis H37Rv [2]", "result": "400000 CFU/ml and 600000 CFU/ml"}, {"measurement": "CFU/ml, Day 4", "setting": "M. tuberculosis H37Rv [2]", "result": "140000 CFU/ml and 70000 CFU/ml"}, {"measurement": "CFU/ml, Day 7", "setting": "M. tuberculosis H37Rv [2]", "result": "70000 CFU/ml and 53000 CFU/ml"}, {"measurement": "CFU/ml, Day 14", "setting": "M. tuberculosis H37Rv [2]", "result": "8600 CFU/ml and 7100 CFU/ml"}, {"measurement": "COX1 production", "setting": "[12]", "result": "selective inhibition of COX1 production"}]}
